US20250255847A1, “[…]s: Novel Drugs for Triple Negative Breast Cancer” (SIMMARON RSEARCH INC, priority 2024, published 2025)

Assays:
[1] = tested on: Y705P STAT3 recruitment in IL6 promoter; experiment: Chromatin immunoprecipitation of STAT3 response element in IL6 promoter; type: cell-based, human; settings: 10 ng/mL EGF + 20 nM compound, 5 hrs, MDA-MB-468
Experimental: FIG. 9 illustrates an embodiment of the present invention and illustrates promoter recruitment assay of STAT3 in IL6 promoter. (A) MDA-MB-468 cells were treated with 5, 10, and 20 ng/mL doses of EGF for 5 hrs followed by immunoblot (IB) analyses of Y705 phospho and S727 phospho STAT3 in nuclear extracts. Histone 3 ([…]) IB was run as control. (B) EMSA analyses were performed in nuclear extracts of EGF (20 ng/mL)- and EGF+SIM-1 (20 nM)-treated MDA-MB-468 cells against the STAT3-specific oligonucleotide probe (Li-Cor bioscience; Cat #P/N: 829-07922) or SEQ ID NO: 1 and resolved in 6% DNA retardation gel (Invitrogen). […]
Third, to further confirm the promoter recruitment activity of Y705PSTAT3 in the IL6 promoter, chromatin immunoprecipitation assay of STAT3-response element in the IL6 promoter was performed using primer sets described under “Promoter analysis and Chromatin Immunoprecipitation (ChIP) assay” hereinabove. Briefly, MDA-MB-468 cells were incubated with 10 ng/mL EGF, EGF+SIM-1 (20 nM), and EGF+SIM-2 (20 nM) for 5 hrs followed by performing an immunoprecipitation (IP) of DNA-bound STAT3 with Y705P STAT3-specific antibody and then the precipitated DNA by PCR analysis was analyzed to identify STAT3 response element (˜121 bp long) in IL6 promoter.

[2] = biological target: T1, DNA binding activity of STAT3 (Homo sapiens, UniProt P40763); experiment: Electrophoretic mobility shift assay (EMSA) in nuclear extracts; type: cell-based; settings: EGF (20 ng/mL)-stimulated MDA-MB-468 nuclear extract, SIM-1 20 nM (FIG. 9B)
T1 construct: endogenous in cells; host or cells: MDA-MB-468 (nuclear extract)
Experimental: FIG. 9 illustrates an embodiment of the present invention and illustrates promoter recruitment assay of STAT3 in IL6 promoter. (A) MDA-MB-468 cells were treated with 5, 10, and 20 ng/mL doses of EGF for 5 hrs followed by immunoblot (IB) analyses of Y705 phospho and S727 phospho STAT3 in nuclear extracts. Histone 3 ([…]) IB was run as control. (B) EMSA analyses were performed in nuclear extracts of EGF (20 ng/mL)- and EGF+SIM-1 (20 nM)-treated MDA-MB-468 cells against the STAT3-specific oligonucleotide probe (Li-Cor bioscience; Cat #P/N: 829-07922) or SEQ ID NO: 1 and resolved in 6% DNA retardation gel (Invitrogen). (C) Chromatin immunoprecipitation assay was performed in the nuclear extracts of MDA-MB-468 cells treated with EGF or EGF+SIM-1 for 5 hrs. Y705P STAT3 antibody was used for chromatin immunoprecipitation and IgG precipitation was performed as a control.
Electrophoretic Mobility Shift Assay (EMSA). EMSA was performed in […] as described before. […] were treated with 25 ng/mL EGF alone or together with SIM1 (5 nM) for 5 hrs followed by nuclear fractionation with nuclear extraction kit (Abcam). […]

T1 sequence (P40763 2-770 limits assumed): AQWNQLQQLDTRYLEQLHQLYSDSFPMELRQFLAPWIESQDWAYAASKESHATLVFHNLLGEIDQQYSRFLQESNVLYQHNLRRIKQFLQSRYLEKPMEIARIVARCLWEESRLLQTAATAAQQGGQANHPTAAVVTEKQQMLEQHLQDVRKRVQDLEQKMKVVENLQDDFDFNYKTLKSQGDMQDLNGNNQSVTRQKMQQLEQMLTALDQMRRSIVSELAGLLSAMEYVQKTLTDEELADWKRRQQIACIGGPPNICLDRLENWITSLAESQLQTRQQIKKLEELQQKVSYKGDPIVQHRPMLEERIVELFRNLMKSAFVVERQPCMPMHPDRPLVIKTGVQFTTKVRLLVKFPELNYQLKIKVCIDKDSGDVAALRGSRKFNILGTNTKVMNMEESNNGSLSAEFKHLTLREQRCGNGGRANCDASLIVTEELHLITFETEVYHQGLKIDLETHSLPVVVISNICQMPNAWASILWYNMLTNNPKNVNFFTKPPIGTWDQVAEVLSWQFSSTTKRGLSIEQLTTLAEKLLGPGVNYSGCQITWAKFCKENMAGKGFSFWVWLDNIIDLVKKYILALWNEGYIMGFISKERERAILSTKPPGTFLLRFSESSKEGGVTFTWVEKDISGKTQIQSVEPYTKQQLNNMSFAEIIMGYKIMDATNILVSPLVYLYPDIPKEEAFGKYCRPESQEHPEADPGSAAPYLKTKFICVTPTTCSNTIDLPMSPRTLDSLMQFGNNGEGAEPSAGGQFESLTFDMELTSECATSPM

For `CCOC(=O)c1c(NC(C)=O)sc2c(Cl)c(/C=N/O)ccc12` [SIM-2, ethyl 2-acetamido-7-chloro-6-(hydroxyiminomethyl)-1-benzothiophene-3-carboxylate], the “promoter recruitment activity of Y705P STAT3 in IL6 promoter” value [1] was “significantly attenuated”.
With `O=C(O)CCC(=O)NCc1csc2ccc(Cl)cc12` [SIM-1, 4-[(5-chloro-1-benzothiophen-3-yl)methylamino]-4-oxobutanoic acid] the “promoter recruitment activity of Y705P STAT3 in IL6 promoter” value [1] was “significantly attenuated” and the “DNA binding activity of STAT3” value [2] was “markedly inhibited”.
